# From ChEMBL document CHEMBL3885861, “Open TG-GATES”
# Species: Rattus norvegicus
# Test: Open TG-GATES - Regimen: Single
# Assay type: toxicity, organism-based, Sprague-Dawley
# Parameters: regimen Single, gender Male, age 6 weeks
# Conditions: in vivo, po, 1000 mg/kg, route gavage, dose level High; for APTT / Bas / Eos / Fbg / Hb / Ht / Lym / MCH / MCHC / MCV / Mono / Neu / PT / Plat / RBC / Ret / WBC: tissue Blood; for KIDNEY_L / KIDNEY_R / KIDNEY_TOTAL: tissue Kidney; for LIVER: tissue Liver; for A/G / ALP / ALT / AST / BUN / CRE / Ca / Cl / DBIL / GLC / IP / K / LDH / Na / PL / RALB / TBIL / TC / TG / TP / gamma-GTP: tissue Plasma
smiles,measurement,setting,value
CNC(=C[N+](=O)[O-])NCCSCc1ccc(CN(C)C)o1 [RANITIDINE],TERMINAL_BW,3 h,218.6 g
same,APTT,3 h,21.3 s
same,Bas,3 h,0%
same,Eos,3 h,1%
same,Fbg,3 h,209 mg/dL
same,Hb,3 h,12.7 g/dL
same,Ht,3 h,36.7%
same,Lym,3 h,76.2%
same,MCH,3 h,21.7 pg
same,MCHC,3 h,34.7%
same,MCV,3 h,62.7 fL
same,Mono,3 h,2.4%
same,Neu,3 h,17.4%
same,PT,3 h,12.5 s
same,Plat,3 h,116.7 x10_4/uL
same,RBC,3 h,585.2 x10_4/ul
same,Ret,3 h,7.1%
same,WBC,3 h,84.3 x10_2/uL
same,KIDNEY_L,3 h,1 g
same,KIDNEY_R,3 h,1 g
same,KIDNEY_TOTAL,3 h,2.1 g
same,LIVER,3 h,10.5 g
same,A/G,3 h,1.7
same,ALP,3 h,944 IU/L
same,ALT,3 h,35.8 IU/L
same,AST,3 h,67.2 IU/L
same,BUN,3 h,9.4 mg/dL
same,CRE,3 h,0.4 mg/dL
same,Ca,3 h,10.5 mg/dL
same,Cl,3 h,104.4 meq/L
same,DBIL,3 h,0.064 mg/dL
same,GLC,3 h,181.2 mg/dL
same,IP,3 h,8.2 mg/dL
same,K,3 h,3.7 meq/L
same,LDH,3 h,148 IU/L
same,Na,3 h,141.4 meq/L
same,PL,3 h,133.6 mg/dL
same,RALB,3 h,3.3 g/dL
same,TBIL,3 h,0.1 mg/dL
same,TC,3 h,68 mg/dL
same,TG,3 h,44.8 mg/dL
same,TP,3 h,5.3 g/dL
same,gamma-GTP,3 h,1.2 IU/L
same,TERMINAL_BW,6 h,213.4 g
same,APTT,6 h,18.8 s
same,Bas,6 h,0%
same,Eos,6 h,1%
same,Fbg,6 h,232.8 mg/dL
same,Hb,6 h,13.4 g/dL
same,Ht,6 h,38%
same,Lym,6 h,72.8%
same,MCH,6 h,21.7 pg
same,MCHC,6 h,35.1%
same,MCV,6 h,62 fL
same,Mono,6 h,3%
same,Neu,6 h,18.4%
same,PT,6 h,12.7 s
same,Plat,6 h,106.2 x10_4/uL
same,RBC,6 h,613.8 x10_4/ul
same,Ret,6 h,7.1%
same,WBC,6 h,88.7 x10_2/uL
same,KIDNEY_L,6 h,0.9 g
same,KIDNEY_R,6 h,0.9 g
same,KIDNEY_TOTAL,6 h,1.9 g
same,LIVER,6 h,9.8 g
same,A/G,6 h,1.7
same,ALP,6 h,906.4 IU/L
same,ALT,6 h,37.2 IU/L
same,AST,6 h,63.8 IU/L
same,BUN,6 h,9.4 mg/dL
same,CRE,6 h,0.4 mg/dL
same,Ca,6 h,10.6 mg/dL
same,Cl,6 h,104 meq/L
same,DBIL,6 h,0.066 mg/dL
same,GLC,6 h,193.4 mg/dL
same,IP,6 h,8.3 mg/dL
same,K,6 h,3.6 meq/L
same,LDH,6 h,126.4 IU/L
same,Na,6 h,141 meq/L
same,PL,6 h,151.4 mg/dL
same,RALB,6 h,3.4 g/dL
same,TBIL,6 h,0.1 mg/dL
same,TC,6 h,80.8 mg/dL
same,TG,6 h,47.8 mg/dL
same,TP,6 h,5.4 g/dL
same,gamma-GTP,6 h,1.4 IU/L
